Source: patent US20070042995A1, “Use of acetyl-d-aminoglycosamine in treatment of local lesions and systematic symptoms related to infections of virus or bacteria” (Third Military Medical University , Chinese People …, priority 2003, published 2007)

Columns and labels:
[1] = tested on: Pseudomonas aeruginosa, serotype 8; experiment: Animal test of controlling local lesions and systemic symptoms caused by infection of microorganism; format: in vivo, rabbits; details: 10% aqueous solution i.v., 2 ml, 3 times per day, 3 days; for rabbits survived: of 10 rabbits
Method: 10 rabbits were used in tests. The rabbits were administered with a culture of Gram-negative bacteria (Pseudomonas aeruginosa, serotype 8, wherein the bacterial number in the culture is about 3×10^11) in a dose of 10 ml per day for consecutive 3 days. […] The rabbits were intravenously administered with N-acetyl-D-glucosamine (10% aqueous solution) a dose of 2 ml every time, 3 times per day, for consecutive 3 days. […] In the test group, all 10 rabbits survived, while in the control group, 8/10 rabbits of the control group died within one week, and only 2 rabbits survived.
When N-acetyl-D-glucosamine was replaced with N-acetyl-D-glucosamine hydrochloride in the tests (other conditions were not changed), 7/10 rabbits of test group survived.

[2] = in vivo
Text: The toxicological test of the compound of formula (I) includes: • 1. Acute toxicity test: including tests of oral administration, intravenous injection administration, and maximum limit amount for administration; • 2. Ames test; • 3. Micronucleus test of mouse bone marrow cell; • 4. Abnormality test of mouse sperm; • 5. Aberration test of mouse testis chromosome; • 6. Chronic lethal test; • 7. Sub-chronic toxicity (feed for 90 days) test; • 8. Traditional deformity-inducing test.

[3] = tested on: Proteus Mirabilis; experiment: Promoting wave test (bio-wave model); format: cell-based; details: final concentration 0.5%, 37° C., 9 hours
Text: 1. Experimental Materials and Method: 1.1 Sample: Pure Compound of Formula (I) 1.2 Experimental Materials: • Strain: Proteus Mirabilis that meets the following biochemical reaction characteristics; dynamics (+), urease (+), lactose (−), glucose (+), H2S (−), phenylalanine deaminase (+). • Culture medium; modified LB culture medium (components: 1% tryptones, 0.5% yeast extract, 1% sodium chloride, 0.1% glucose, 0.002% TTC, and pH=7.2 to 7.4). 1.3 Experimental Method: • Control sample: the Proteus Mirabilis were inoculated at the center of LB plate, incubating at 37° C. for 9 hours; • Test sample: the compound of formula (I) with a final concentration of 0.5% was added to the LB plate, then the Proteus Mirabilis were inoculated by the same method, and cultured at 37° C. for 9 hours. 2. […] This wave-promoting function may explain the effects of using N-acetyl-D-glucosamine or pharmaceutically acceptable salts thereof for treating and controlling local lesions and systematic symptoms caused by infections of virus or bacteria.

[4] = tested on: B16 tumor cells; experiment: Cytological test of regulating micro-heterology variation; format: cell-based; details: final concentration 1 g/100 ml, incomplete 1640 media, cultured more than 48 hours
Method: Conventional incomplete 1640 culture media were used for cell culture, and B16 tumor cells (commercially obtained from the tumor cell library of Shanghai Institute of Cytobiology) were inoculated on said media. After being continuously cultured for more than 48 hours, the micro-heterology variation of cells and the control effects of N-acetyl-D-glucosamine thereon were observed under a condition where metabolic wastes affected the growth environment. […] The control cells cultured without N-acetyl-D-glucosamine could not proliferate on the same culture media under same conditions.

[5] = tested on: B16 tumor cells; experiment: Animal test of regulating micro-heterology variation (B16 tumor cells inoculated in rats); format: in vivo; details: of 50 rats; 5% aqueous solution i.p., 1 ml, 3 times per day, 7 days
Text: In control group without the administration of the compound of formula (1), many proliferative corpuscles appeared in at least 40 among 50 rats within 1-3 days after the tumor cells were inoculated; many immature cells appeared within 3-5 days; and visible solid tumors finally appeared within about 10 days.

Structure (SMILES)	rabbits survived [1]	dosage at which acute toxicosis reaction had not appeared [2]	inflammation of nasal mucosa and respiratory tract [1]	systemic toxic symptoms ([1]; after one week)	bio-wave pattern of colony growth on LB plate [3]	cell proliferation under metabolic waste conditions [4]	number of rats in which solid tumor did not appear [5] [rats]
CC(=O)N[C@H]1C(O)O[C@H](CO)[C@@H](O)[C@@H]1O.Cl (stereo partly drawn) [N-acetyl-D-glucosamine hydrochloride]	7/10						
CC(=O)N[C@@H]1[C@@H](O)[C@H](O)[C@@H](CO)O[C@H]1O [N-acetyl-D-glucosamine]	10 rabbits	more than 2 g/kg	inflammations were alleviated	symptoms were alleviated	not only concentric rings with an interval of 3 hours, but also many fine waves on each ring	the cell number stably increased with the culture time	45
